Values quoted from earlier work in paper PMC10687119, “Quaternary Ammonium Salts of Cationic Lipopeptides with Lysine Residues — Synthesis, Antimicrobial, Hemolytic and Cytotoxic Activities” (Probiotics and Antimicrobial Proteins, 2023).

Legend:
[1] = cited from earlier work
[2] = system: S. aureus; set-up: method as in PMID 20374251; settings: against S. aureus ref 5; cited from earlier work
[3] = system: human keratinocytes; set-up: method as in PMID 33003569; settings: toxicity towards human keratinocytes ref 3; in µg/mL; cited from earlier work

Row | Molecule | IC50 [3] | also measured
1 | C[N+](C)(C)CC(=O)O [betaine, N,N,N-trimethylglycine] |  | solubility in water [1]: 611 mg/mL
2 | C12-Orn-Orn-Trp-Trp-NH2 |  | MIC [2]: 0.95 to 1.95 µg/mL
3 | C16-CRRKKC-NH2 | 21.3 ± 8.2 | 
4 | C16-RRKK-NH2 [Peptide C16-RRKK-NH2] | 8.1 ± 1.1 | 
